# Reference: ChEMBL document CHEMBL1142829, “Structure-antioxidant activity relationships of flavonoids isolated from the resinous exudate of Heliotropium sinuatum” (Bioorg Med Chem Lett, 2005)
# Experiment: Ratio between antioxidant activities determined employing ABTS and DPPH methods
row,Ratio,Structure (SMILES)
1,3.4,COc1cc(O)c2c(=O)cc(-c3ccc(O)c(O)c3)oc2c1
2,170,COc1cc(O)cc2oc(-c3ccccc3)cc(=O)c12
3,6.8,COc1c(-c2ccccc2)oc2cc(O)cc(OC)c2c1=O
4,126,COc1ccc(-c2cc(=O)c3c(OC)cc(O)cc3o2)cc1O
5,143,COc1cc(O)cc2oc(-c3ccc(O)cc3)cc(=O)c12
6,6.6,COc1cc(-c2oc3cc(O)cc(OC)c3c(=O)c2OC)ccc1O
7,125,COc1cc(OC)c2c(=O)c(OC)c(-c3ccc(O)c(OC)c3)oc2c1
8,160,COc1cc(O)cc2oc(-c3ccccc3)c(OC(C)=O)c(=O)c12
